Reference: PubChem BioAssay (NCI)
Where “and” joins values, the source holds several entries; their conditions need not be identical. Equal values may be shown once.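 How tested: cells in 96-well plates exposed to compound for 48 hours at five concentrations. The concentration for 50% growth inhibition is given as GI50. The concentration for full growth arrest is given as TGI.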

Tests used:
Test in all cases: inhibition of tumour cell growth, NCI panel, 48 h
[1] = test system: BT-549 breast
[2] = test system: CAKI-1 renal
[3] = test system: M14 melanoma
[4] = test system: RPMI-8226 leukemia
[5] = test system: HL-60(TB) leukemia
[6] = test system: HS 578T breast
[7] = test system: NCI-H226 lung
[8] = test system: MDA-MB-231 breast
[9] = test system: T-47D breast
[10] = test system: 786-0 renal

Row | Structure (SMILES) | GI50 [1] | TGI [1] | GI50 [2] | TGI [2] | GI50 [3] | TGI [3] | GI50 [4] | TGI [4] | GI50 [5] | TGI [5] | GI50 [6] | TGI [6] | GI50 [7] | TGI [7] | GI50 [8] | TGI [8] | GI50 [9] | TGI [9] | GI50 [10] | TGI [10]
1 | Cc1cc(O)c(-c2ccc([C@@H](C)CN(C)C)cc2)c2c1[nH]c(=O)c1sccc12 | 0.574 µM | 3.44 µM | 1.82 µM | 33.4 µM | 0.705 µM | 4.34 µM | 0.427 µM | 2.74 µM | 0.453 µM | 7.38 µM | 0.207 µM | 20.8 µM | 1.75 µM | 18.4 µM | 0.608 µM | 28.6 µM | 0.309 µM | 5.19 µM | 0.248 µM | 5.43 µM
2 | O=C(O)c1ccc(SSc2ccc(C(=O)O)cn2)nc1 | – | > 100 µM | – | > 100 µM | – | > 100 µM | – | > 100 µM | – | > 100 µM | – | > 100 µM | – | > 100 µM | – | > 100 µM | – | > 100 µM | – | > 100 µM
3 | C[C@@H]1CC[C@@]2(NC1)O[C@H]1C[C@H]3[C@@H]4CC[C@H]5C[C@@H](O)CC[C@]5(C)[C@H]4CC[C@]3(C)[C@H]1[C@@H]2C | – | > 100 µM | – | > 100 µM | – | > 100 µM | – | 85.6 µM | – | 53.8 µM | – | > 100 µM | – | > 100 µM | – | > 100 µM | – | > 100 µM | – | > 100 µM
4 | C=C1CCC2C3(C)COC(c4ccccc4Cl)OC3CCC2(C)C1/C=C/C1=CCOC1=O (stereo not given) | 3.55 µM | 72.9 µM | 4.08 µM | > 100 µM | 89.6 µM | > 100 µM | 1.16 µM | 9.97 µM | 4.97 µM | > 100 µM | > 100 µM | > 100 µM | 14.3 µM | > 100 µM | > 100 µM | > 100 µM | 3.39 µM | > 100 µM | > 100 µM | > 100 µM
5 | COc1cc2nccc(Oc3ccc(NC(=O)c4cn(C(C)C)c(=O)n(-c5ccc(F)cc5)c4=O)cc3F)c2cc1OC | 3.29 µM | 11.3 µM | 1.91 µM | 6 µM | 63.3 µM | > 100 µM | > 100 µM | > 100 µM | > 100 µM | > 100 µM | 2.64 µM | 89.2 µM | 6.76 µM | > 21.8 µM | 2.61 µM | 39.5 µM | 3.23 µM | 34.4 µM | > 100 µM | > 100 µM
6 | CNC(=O)c1cncc(/C=C/c2ccccc2Cl)c1 | > 25 µM | > 25 µM | > 25 µM | > 25 µM | > 25 µM | > 25 µM | > 25 µM | > 25 µM | > 25 µM | > 25 µM | 24.5 µM | > 25 µM | > 25 µM | > 25 µM | > 25 µM | > 25 µM | > 23.6 µM | > 25 µM | > 25 µM | > 25 µM
7 | CCOC(=O)CN1C(=O)c2cc([N+](=O)[O-])cc3cc([N+](=O)[O-])cc(c23)C1=O | – | > 100 µM | – | > 100 µM | – | > 100 µM | – | > 100 µM | – | 8.99 µM | – | > 100 µM | – | > 100 µM | – | > 100 µM | – | > 100 µM | – | > 100 µM
8 | CCC1=C(CC2NCCc3ccccc32)CC2c3cc(OC)c(OC)cc3CCN2C1 (stereo not given) | 9.07 µM | 21.2 µM and 9.89 µM | 3.28 µM | 15.2 µM | 4.53 µM | 16 µM and 3.49 µM | 4.17 µM | 15.9 µM and 3.12 µM | 2.89 µM | 10.7 µM and 5.01 µM | 3.07 µM | 12.8 µM and 3.73 µM | 4.7 µM | 37.4 µM and 4.74 µM | 3.4 µM | 14.4 µM and 1.75 µM | 3.9 µM | 16.8 µM and 5.85 µM | 4.04 µM | 17.1 µM and 2.9 µM
9 | O=C([O-])CC(=O)[O-].[NH-][C@@H]1CCCC[C@H]1[NH-].[Pt+4] | 32.8 µM | > 100 µM | 3.53 µM | > 100 µM | 16.7 µM | > 100 µM | 1.05 µM | > 100 µM | 6.31 µM | > 100 µM | 19.6 µM | > 100 µM | 5.9 µM | > 80.6 µM | > 100 µM | > 100 µM | 8.38 µM | > 100 µM | 13.2 µM | > 100 µM
10 | COC(C)C(O)(C(=O)OCC1=CCN2CCC(O)C12)C(C)(C)O (stereo not given) | – | > 100 µM | – | > 100 µM | – | > 100 µM | – | > 100 µM | – | > 100 µM | – | > 100 µM | – | > 100 µM | – | > 100 µM | – | > 100 µM | – | > 100 µM
11 | CC1(C)CCC[C@]2(C)c3ccccc3C(=O)CC12 (stereo not given in full) | 39.4 µM | > 100 µM | 83.1 µM | > 100 µM | 38.6 µM | > 100 µM | 29.7 µM | > 100 µM | 40.5 µM | > 100 µM | 23.2 µM | 95.3 µM | 22.9 µM | > 100 µM | 30.8 µM | > 100 µM | 53.5 µM | > 100 µM | 64.9 µM | > 100 µM
12 | CCn1c2ccccc2c2cc(C(=O)c3ccc(C)c4ccccc34)ccc21 | 0.574 µM | 5.34 µM | 1.61 µM | > 100 µM | 0.276 µM | 1.42 µM | 0.389 µM | > 100 µM | 0.307 µM | 2 µM | 0.756 µM | > 100 µM | 1.91 µM | > 100 µM | 0.824 µM | > 100 µM | 0.76 µM | > 100 µM | 0.426 µM | > 100 µM
13 | Nc1cccc2c1C(=O)c1cccc(NC(=O)c3ccccc3)c1C2=O | 0.674 µM | 33.9 µM | 0.229 µM | 3.01 µM | 0.4 µM | 36.4 µM | 0.462 µM | > 100 µM | 0.292 µM | > 100 µM | 0.412 µM | > 53.1 µM | 1.7 µM | > 100 µM | 1.06 µM | > 100 µM | 1.1 µM | > 100 µM | 0.646 µM | 15.7 µM
14 | COc1cc2c3c(n(CCCNCCCN)c(=O)c2cc1OC)-c1cc2c(cc1C3=O)OCO2 | 6.49 µM | 20.6 µM | 8.22 µM | 37.3 µM | 4.65 µM | 16.7 µM | 2.44 µM | 11.8 µM | 1.46 µM | 5.28 µM | 6.28 µM | 42.8 µM | 2.21 µM | 8.45 µM | 2.93 µM | 12.6 µM | 2.8 µM | 14.7 µM | 2.83 µM | 14.2 µM
15 | CC(C)(C)OC(=O)Nc1ccc2c(c1)C(NC(=O)Nc1cccc(C#N)c1)CC(C)(C)O2 (stereo not given) | 2.65 µM | 18 µM | 2.49 µM | > 42.6 µM | 3.73 µM | 40.5 µM | 2.63 µM | > 81.9 µM | 2.39 µM | 22.3 µM | 8.79 µM | > 100 µM | 2.29 µM | 42.8 µM | 4.17 µM | > 50.7 µM | 2.52 µM | 33 µM | 5.05 µM | > 100 µM
16 | CO/N=C(\COc1ccc2oc(-c3ccccc3)cc(=O)c2c1)c1ccc(F)cc1 | 29.6 µM | > 100 µM | > 100 µM | > 100 µM | 32.2 µM | > 100 µM | 24.6 µM | > 100 µM | 27.3 µM | > 100 µM | 23.2 µM | 71 µM | 29.7 µM | > 100 µM | 18.7 µM | 39 µM | 21.5 µM | 59.3 µM | 21.3 µM | 43.7 µM
17 | O=C[C@@H](CO)O[C@H](C=O)n1cnc2c(=O)[nH]cnc21 | – | 2370 µM | – | 1590 µM | – | 1860 µM | – | 633 µM | – | 217 µM | – | 2390 µM | – | 1780 µM | – | 1010 µM | – | 404 µM | – | 2010 µM
18 | COc1cc(CNc2oc(-c3ccccc3)c(-c3ccccc3)c2C#N)cc(CN2CCN(C)CC2)c1O | 1.71 µM | 3.42 µM | 1.68 µM | 3.17 µM | 1.78 µM | 3.65 µM | 2.23 µM | 6.33 µM | 1.79 µM | 4.19 µM | 2.26 µM | 6.61 µM | 2.48 µM | 6.75 µM | 2.01 µM | 3.93 µM | 1.91 µM | 4.17 µM | 1.68 µM | 3.21 µM
19 | CC/C(=C/c1ccc(OC)cc1OC)[N+](=O)[O-] | 4.15 µM | 15.3 µM | 2.24 µM | 6.55 µM | 2.44 µM | 8.53 µM | 2.31 µM | 7.19 µM | 2.6 µM | 7.93 µM | 7.76 µM | 63.4 µM | 2.28 µM | 4.73 µM | 3.08 µM | 8.96 µM | 1.72 µM | 5.06 µM | 1.77 µM | 3.29 µM
20 | Cc1ccc(C(=O)NC2CC2)cc1-c1ccc2[nH]ncc2c1 | > 25 µM | > 25 µM | > 25 µM | > 25 µM | > 25 µM | > 25 µM | > 25 µM | > 25 µM | > 25 µM | > 25 µM | > 19.5 µM | > 25 µM | > 25 µM | > 25 µM | > 25 µM | > 25 µM | > 25 µM | > 25 µM | > 25 µM | > 25 µM
